Measured values as given in publication PMC5891061, “Electrophysiological mechanisms of vandetanib-induced cardiotoxicity: Comparison of action potentials in rabbit Purkinje fibers and pluripotent stem cell-derived cardiomyocytes” (PLoS ONE, 2018).

Legend:
[1] = cited from earlier work
[2] = molecular target: T1, KCNJ2 (IK1) (Homo sapiens, UniProt P63252); assay: cell-based
T1 sequence (P63252 1-427): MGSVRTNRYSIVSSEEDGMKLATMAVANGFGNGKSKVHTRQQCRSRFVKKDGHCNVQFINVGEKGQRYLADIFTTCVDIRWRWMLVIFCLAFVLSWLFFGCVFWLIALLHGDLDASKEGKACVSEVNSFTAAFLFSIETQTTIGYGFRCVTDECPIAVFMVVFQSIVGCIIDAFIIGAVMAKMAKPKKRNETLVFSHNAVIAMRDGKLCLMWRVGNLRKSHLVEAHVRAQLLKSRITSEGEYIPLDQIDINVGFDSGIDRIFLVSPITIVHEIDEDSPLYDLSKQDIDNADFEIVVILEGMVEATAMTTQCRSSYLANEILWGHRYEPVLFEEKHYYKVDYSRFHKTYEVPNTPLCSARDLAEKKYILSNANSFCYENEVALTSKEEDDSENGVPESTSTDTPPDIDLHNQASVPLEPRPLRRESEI
Excerpt: (§1) For various aspects of cardiac ion channel study, human embryonic kidney (HEK293; ATCC, Manassas, VA, USA) cells were transiently transfected using lipofectAmin2000 (Gibco BRL, New York, NY, USA) according to the manufacturer’s instructions. The hERG (human ether-ago-go-related gene corresponding to IKr), KCNQ1/KCNE1 (the gene corresponding to IKs), KCNJ2 (the gene corresponding to IK1) or SCN5A (the gene corresponding to INa) cDNA was co-transfected with green fluorescence protein, the surface marker protein, to allow assessment of the transfection efficiency. For the calcium current, enzymatically isolated single rat ventricular myocytes were used. Briefly, the hearts were rapidly excised from anaesthetized Sprague–Dawley rats (250–350 g) and perfused via the aorta on a Langendorff apparatus with an oxygenated normal Tyrode (NT) solution for 5 min. […]
(§2) The external solution for recording the IhERG, IKs and INa channel currents was NT solution. […] The calcium current was measured in naïve rat ventricular myocytes, cells were superfused with an external solution that consisted of (in mM): 137 choline-Cl, 5 CsCl, 0.5 MgCl2, 2 4-AP, 10 HEPES, 10 glucose and 1.8 CaCl2 (pH 7.4 with NaOH), whereas the intracellular solution used to fill the pipette had the following ionic solution (in mM): 20 CsCl, 100 Cs-aspartate, 10 EGTA, 10 HEPES, 20 TEA-Cl, 5 Mg-ATP (pH 7.25 with KOH). […]

[3] = molecular target: hERG (IKr) (Homo sapiens, UniProt Q12809); assay: Whole-cell patch clamp, IhERG tail current in transfected HEK293 cells
Excerpt: as §1, with “min. To clear the blood, then perfused with Ca^2+-free normal Tyrode solution for 3 min.” for “min.”
as §2
pCLAMP (Axon Instruments, Foster City, CA, USA), Origin 8 (OriginLab Corp, Northampton, MA, USA), and Excel (Microsoft, Redmond, WA, USA) were used for data acquisition and analysis. The concentration–response relationships for drug-induced blockage were calculated using SigmaPlot (Systat Software, San Jose, CA, USA). […] Statistical significance was determined using the Student’s t-test and one-way ANOVA with post hoc testing using Dunnett’s method; p < 0.05 was considered to indicate statistical significance. […]

[4] = molecular target: T2, F656A hERG (Homo sapiens, UniProt Q12809, F656A); conditions: 3 μM, -120 mV, high K+
Excerpt: (§3) The hERG mutations were constructed by site-directed mutagenesis of WT hERG cDNA in pcDNA3.1 vector using the QuickChange Site-Directed Mutagenesis Kit (Stratagene), and the integrity of the construct was verified by DNA sequencing.

[5] = molecular target: T2, F656A hERG; assay: in vitro; conditions: HEK-293 cells transiently expressing F656A mutant hERG
Excerpt: as §3

COc1cc2c(Nc3ccc(Br)cc3F)ncnc2cc1OCC1CCN(C)CC1 [Vandetanib]
Incidence of asymptomatic QTc prolongation ([1]; Japanese phase I trial): 61%
Patients with side effects such as diarrhea/colitis, rash, nausea, and hypertension ([1]; patients): > 20%
Patients who developed asymptomatic QTc prolongation ([1]; phase I trial in solid tumors): 9%
Incidence of asymptomatic QT prolongation ([1]; phase II trials): 15%
IC50 [2]: 94.5 ± 4.57 µM
Reduction of IhERG current amplitude ([3]; 0.3 μM): 17.04%
Reduction of IhERG current amplitude ([3]; 1 μM): 45.32%
Reduction of IhERG current amplitude ([3]; 3 μM): 76.05%
F656A hERG current [4]: -1101.9 ± 122.4
inhibition at 3 μM [5]: 27.4 ± 4.8%
